Patent US20240245670A1, “DOSING REGIMEN AND PHARMACEUTICAL COMBINATION COMPRISING 3-(1-OXOISOINDOLIN-2-YL)PIPERIDINE-2,6-DIONE DERIVATIVES” (Novartis AG, priority 2018, published 2024)

Legend:
[1] = PK in repeated oral dose study, MDA-MB231 xenograft human PBMC adoptive transfer mouse model (Table 14); assay type: in vivo; settings: for AUCinf (unbound) / Cmax (unbound): mouse, unbound (73% PPB in mouse)
Description: FIG. 6 is a pictorial representation of the multi-dose PK/PD study design in the human PBMC adoptive transfer mouse model harboring MDA-MB231 xenografts. Fourteen consecutive daily doses of Compound I-57 was administered at 0.3 mg/kg, 1 mg/kg, 3 mg/kg or 30 mg/kg.
The PK/PD relationship of I-57 was examined in the hPBMC AdT model system. Human PBMCs were adoptively transferred into female NSG mice harboring established MDA-MB231 xenografts (FIG. 6). This model was selected based on the observation that IKZF2 positive Tregs (CD4+FOXP3+) were readily identifiable in peripheral blood and infiltrated in the tumor xenografts.
Mice were administered I-57 daily for 14 consecutive days at the doses shown. Longitudinal I-57 plasma concentrations were assessed (Table 14).
Based on the data from this hPBMC AdT mouse model, unbound I-57 (73% percent plasma binding in the mouse) exposures (AUCinf) of 7, 30, 157 and 3474 ng*h/mL are required to achieve the reduction of IKZF2 positivity (via flow cytometry) in tumor Tregs by 31, 43, 56, and 75%, respectively. The relationship between the magnitude and duration of I-57-mediated IKZF2 degradation and subsequent modulation of therapeutically relevant downstream biology is not yet well understood.

[2] = Toxicology studies incl. 4-week GLP studies in rats and cynomolgus monkeys; assay type: in vivo; settings: from 4-week GLP toxicology studies in rats (30, 100, 300 mg/kg/day) and cynomolgus monkeys (3, 10, 30 mg/kg/day)
Excerpt: The non-clinical safety profile of I-57 was established in vitro, and in vivo in rats and cynomolgus monkeys in studies up to 4-weeks duration. Based on the outcome of these studies, QTc interval prolongation was identified as the principal safety signal for I-57. There were other toxicities such as diarrhea and vomiting in monkeys, and mortality, clinical signs and target organ toxicities in rats; however, these occurred at exposures far above those expected to result in clinical activity.
Preclinical safety data in 4-week GLP toxicology studies in rats (30, 100 and 300 mg/kg/day) and cynomolgus monkeys (3, 10 and 30 mg/kg/day) provide maximum recommended starting dose (MRSD) of 100 mg in humans. Based on non-clinical animal models including AdT studies, cynomolgus vaccination studies and cynomolgus PK/PD studies (See Example 1) I-57 at 20 mg is expected to result in submaximal IKZF2 degradation in PBMCs and tumor. This is considered safe and will permit PK/PD characterization and determination of the lowest dose of I-57 at which maximal detectable IKZF2 degradation is achieved.

FIZ1 = molecular target: T1, FIZ1 (Homo sapiens, UniProt Q96SL8+Q96SW2); assay: Whole cell proteomic analysis in 293T cells and subsequent analyses; assay type: cell-based
T1 construct: endogenous in cells; host or cells: 293T
Description: Other potential degradation targets of I-57 were evaluated in 293T cells using whole cell proteomic analysis. […] Subsequent analyses have confirmed that FIZ1 is degraded by about 50% at a 10 μM concentration of I-57 ([I-57 Investigator's Brochure]). […] FIZ1 is expressed in the neural retina where it transcriptionally represses the differentiation of photoreceptors. FIZ1 is also expressed in non-ocular tissues with unknown function.

[3] = p.o. 0.3 mg/kg daily, post 1st dose
[4] = p.o. 0.3 mg/kg daily, post 13th dose
[5] = p.o. 1 mg/kg daily, post 1st dose
[6] = p.o. 1 mg/kg daily, post 13th dose
[7] = p.o. 3 mg/kg daily, post 1st dose
[8] = p.o. 3 mg/kg daily, post 13th dose
[9] = p.o. 30 mg/kg daily, post 1st dose
[10] = p.o. 30 mg/kg daily, post 13th dose

T1 sequence (Q96SL8 whole entry): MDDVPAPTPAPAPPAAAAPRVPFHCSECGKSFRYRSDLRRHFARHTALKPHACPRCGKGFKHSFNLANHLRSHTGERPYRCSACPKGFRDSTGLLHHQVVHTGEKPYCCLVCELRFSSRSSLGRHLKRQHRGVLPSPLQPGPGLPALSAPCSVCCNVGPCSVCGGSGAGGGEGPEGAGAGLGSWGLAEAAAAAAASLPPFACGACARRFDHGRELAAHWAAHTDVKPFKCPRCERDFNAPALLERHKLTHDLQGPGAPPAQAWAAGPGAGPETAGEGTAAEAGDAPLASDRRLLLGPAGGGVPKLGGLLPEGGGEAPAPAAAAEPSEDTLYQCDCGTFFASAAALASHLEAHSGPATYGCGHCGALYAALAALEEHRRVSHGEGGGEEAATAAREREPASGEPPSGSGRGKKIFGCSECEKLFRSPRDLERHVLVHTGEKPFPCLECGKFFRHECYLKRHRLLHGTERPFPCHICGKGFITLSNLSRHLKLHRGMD
T1 sequence (Q96SW2 whole entry): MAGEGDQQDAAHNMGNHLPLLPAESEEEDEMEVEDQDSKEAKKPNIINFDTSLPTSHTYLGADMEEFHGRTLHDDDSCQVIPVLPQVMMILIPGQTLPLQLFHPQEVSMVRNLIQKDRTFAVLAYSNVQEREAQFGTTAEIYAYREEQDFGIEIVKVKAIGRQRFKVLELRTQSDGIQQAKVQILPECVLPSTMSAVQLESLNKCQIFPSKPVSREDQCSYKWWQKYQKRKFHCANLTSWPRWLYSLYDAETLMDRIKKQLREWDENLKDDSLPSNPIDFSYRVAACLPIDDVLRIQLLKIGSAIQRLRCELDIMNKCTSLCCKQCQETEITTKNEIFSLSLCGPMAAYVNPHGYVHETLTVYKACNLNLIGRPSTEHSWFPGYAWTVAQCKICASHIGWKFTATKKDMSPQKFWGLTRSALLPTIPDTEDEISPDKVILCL
T1 sequence (Q16531 whole entry partner): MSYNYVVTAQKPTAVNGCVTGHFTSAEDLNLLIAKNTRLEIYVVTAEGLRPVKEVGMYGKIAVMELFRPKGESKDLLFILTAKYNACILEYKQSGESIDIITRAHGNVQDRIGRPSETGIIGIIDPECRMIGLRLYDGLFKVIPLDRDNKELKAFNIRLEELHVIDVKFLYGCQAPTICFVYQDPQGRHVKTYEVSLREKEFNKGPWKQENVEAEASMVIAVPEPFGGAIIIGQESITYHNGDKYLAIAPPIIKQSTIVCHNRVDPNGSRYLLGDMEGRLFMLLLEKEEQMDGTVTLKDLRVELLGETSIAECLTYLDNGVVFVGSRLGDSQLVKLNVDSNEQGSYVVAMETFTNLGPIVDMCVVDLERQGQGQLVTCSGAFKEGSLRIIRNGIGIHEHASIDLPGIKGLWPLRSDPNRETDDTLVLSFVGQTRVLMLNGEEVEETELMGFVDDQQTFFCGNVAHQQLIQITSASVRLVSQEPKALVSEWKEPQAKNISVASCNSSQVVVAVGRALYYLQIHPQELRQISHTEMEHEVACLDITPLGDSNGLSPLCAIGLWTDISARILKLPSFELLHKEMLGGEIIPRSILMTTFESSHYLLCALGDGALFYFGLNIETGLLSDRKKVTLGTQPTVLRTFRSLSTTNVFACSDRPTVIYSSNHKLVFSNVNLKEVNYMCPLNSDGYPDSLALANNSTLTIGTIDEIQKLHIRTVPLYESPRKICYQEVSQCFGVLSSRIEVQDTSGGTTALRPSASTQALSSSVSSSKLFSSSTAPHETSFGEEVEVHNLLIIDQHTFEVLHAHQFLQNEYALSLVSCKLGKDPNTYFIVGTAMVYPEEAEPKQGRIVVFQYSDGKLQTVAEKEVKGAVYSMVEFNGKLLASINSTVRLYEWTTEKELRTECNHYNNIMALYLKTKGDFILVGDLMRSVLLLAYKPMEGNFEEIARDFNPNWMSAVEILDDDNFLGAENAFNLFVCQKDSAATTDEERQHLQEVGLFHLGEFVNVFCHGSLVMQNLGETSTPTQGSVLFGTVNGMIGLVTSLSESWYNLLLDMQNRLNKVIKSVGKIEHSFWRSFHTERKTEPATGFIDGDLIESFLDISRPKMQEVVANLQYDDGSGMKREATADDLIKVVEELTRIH

## O=C1CCC(N2Cc3cc(C4CCN(Cc5ccccc5)CC4)ccc3C2=O)C(=O)N1 (stereo not shown) [Compound I-57, 3-(5-(1-benzylpiperidin-4-yl)-1-oxoisoindolin-2-yl)piperidine-2,6-dione]
[1]; between 3 and 30 mg/kg, daily oral
  increase in AUC and Cmax with dose: over-dose proportional increase
[1]; from 0.3 to 3 mg/kg, daily oral
  increase in overall AUC and Cmax with dose: dose proportional increase
[1]; [3]
  AUCinf (unbound): 7.1 ng·h/mL
  Cmax (unbound): 2.9 ng/mL
[1]; [4]
  AUCinf (unbound): 7.5 ng·h/mL
  Cmax (unbound): 1.1 ng/mL
[1]; [5]
  AUCinf (unbound): 30 ng·h/mL
  Cmax (unbound): 8.8 ng/mL
[1]; [6]
  AUCinf (unbound): 20 ng·h/mL
  Cmax (unbound): 4.6 ng/mL
[1]; [7]
  AUCinf (unbound): 157 ng·h/mL
  Cmax (unbound): 53 ng/mL
[1]; [8]
  AUCinf (unbound): 92 ng·h/mL
  Cmax (unbound): 27 ng/mL
[1]; [9]
  AUCinf (unbound): 3470 ng·h/mL
  Cmax (unbound): 1250 ng/mL
[1]; [10]
  AUCinf (unbound): 4270 ng·h/mL
  Cmax (unbound): 1300 ng/mL
[1]; required for reduction of IKZF2 positivity in tumor Tregs by 31%
  unbound exposure (AUCinf): 7 ng·h/mL
[1]; required for reduction of IKZF2 positivity in tumor Tregs by 43%
  unbound exposure (AUCinf): 30 ng·h/mL
[1]; required for reduction of IKZF2 positivity in tumor Tregs by 56%
  unbound exposure (AUCinf): 157 ng·h/mL
[1]; required for reduction of IKZF2 positivity in tumor Tregs by 75%
  unbound exposure (AUCinf): 3474 ng·h/mL
[2]
  maximum recommended starting dose (MRSD) in humans: 100 mg
FIZ1; 10 μM concentration of I-57
  FIZ1 degradation: about 50%
FIZ1; 293T cells, nearly 8000 proteins identified
  FIZ1 degradation (proteomics): degraded
